Assay results published in ChEMBL document CHEMBL3758098, “3-(Dipropylamino)-5-hydroxybenzofuro[2,3-f]quinazolin-1(2H)-one (DPA-HBFQ-1) plays an inhibitory role on breast cancer cell growth and progression” (Eur J Med Chem, 2016).
Active and inactive are the calls of the source. The calls are words filed in the database; no cut-off is given here.

Experiments:
[1] = Cytotoxicity against human MCF10A cells assessed as growth inhibition at 1 uM after 5 days by MTT assay relative to vehicle-treated control; format: cell-based; settings: mcf-10a, 120 h
MDA-MB-231 = assay: Cytotoxicity against human MDA-MB-231 cells assessed as growth inhibition at 1 uM after 5 days by MTT assay relative to vehicle-treated control; format: functional
MCF7 = assay: Cytotoxicity against human MCF7 cells assessed as growth inhibition at 1 uM after 5 days by MTT assay relative to vehicle-treated control; format: functional; settings: MCF7, 120 h, read-out: GI

With `CCCCN(CCCC)c1nc2ccc3c4ccccc4oc3c2c(=O)[nH]1` the Activity [1] was “Non-toxic”, the “growth inhibition (GI)” value (MDA-MB-231) was “Active” and the inhibition of growth at 1 µM (MCF7) was 15%.
In the case of `CCCN(CCC)c1nc2c(OC)cc3c4ccccc4oc3c2c(=O)[nH]1`, the Activity [1] is reported as “Non-toxic”, the “growth inhibition (GI)” value (MDA-MB-231) is reported as “Active” and the inhibition of growth at 1 µM (MCF7) is reported as 37%.
With `CCCN(CCC)c1nc2ccc3c4ccccc4oc3c2c(=O)[nH]1` the Activity [1] was “Non-toxic”, the “growth inhibition (GI)” value (MDA-MB-231) was “Active” and the inhibition of growth at 1 µM (MCF7) was 25%.
For `CCN(CC)c1nc2c(OC)cc3c4ccccc4oc3c2c(=O)[nH]1`, the Activity [1] was “Non-toxic”, the “growth inhibition (GI)” value (MDA-MB-231) was “Active” and the inhibition of growth at 1 µM (MCF7) was 15%.
